Assay results published in publication PMC4832243, “Discovery of Potent VEGFR-2 Inhibitors based on Furopyrimidine and Thienopyrimidne Scaffolds as Cancer Targeting Agents” (Scientific Reports, 2016).
pIC50: −log10 of the molar value.

Tests used:
VEGFR-2 (KDR) = molecular target: T1, VEGFR-2 (KDR) (Homo sapiens, UniProt P35968); assay: In vitro VEGFR-2 tyrosine kinase activity (Kinase-Glo Plus luminescence, BPS Bioscience); assay type: biochemical; conditions: for inhibition at 10 µM: single dose concentration of 10 μM; for pIC50: 5 concentrations 1 nM - 10 μM
T1 construct: purchased BPS Bioscience 40301
T1 sequence (P35968 20-1356): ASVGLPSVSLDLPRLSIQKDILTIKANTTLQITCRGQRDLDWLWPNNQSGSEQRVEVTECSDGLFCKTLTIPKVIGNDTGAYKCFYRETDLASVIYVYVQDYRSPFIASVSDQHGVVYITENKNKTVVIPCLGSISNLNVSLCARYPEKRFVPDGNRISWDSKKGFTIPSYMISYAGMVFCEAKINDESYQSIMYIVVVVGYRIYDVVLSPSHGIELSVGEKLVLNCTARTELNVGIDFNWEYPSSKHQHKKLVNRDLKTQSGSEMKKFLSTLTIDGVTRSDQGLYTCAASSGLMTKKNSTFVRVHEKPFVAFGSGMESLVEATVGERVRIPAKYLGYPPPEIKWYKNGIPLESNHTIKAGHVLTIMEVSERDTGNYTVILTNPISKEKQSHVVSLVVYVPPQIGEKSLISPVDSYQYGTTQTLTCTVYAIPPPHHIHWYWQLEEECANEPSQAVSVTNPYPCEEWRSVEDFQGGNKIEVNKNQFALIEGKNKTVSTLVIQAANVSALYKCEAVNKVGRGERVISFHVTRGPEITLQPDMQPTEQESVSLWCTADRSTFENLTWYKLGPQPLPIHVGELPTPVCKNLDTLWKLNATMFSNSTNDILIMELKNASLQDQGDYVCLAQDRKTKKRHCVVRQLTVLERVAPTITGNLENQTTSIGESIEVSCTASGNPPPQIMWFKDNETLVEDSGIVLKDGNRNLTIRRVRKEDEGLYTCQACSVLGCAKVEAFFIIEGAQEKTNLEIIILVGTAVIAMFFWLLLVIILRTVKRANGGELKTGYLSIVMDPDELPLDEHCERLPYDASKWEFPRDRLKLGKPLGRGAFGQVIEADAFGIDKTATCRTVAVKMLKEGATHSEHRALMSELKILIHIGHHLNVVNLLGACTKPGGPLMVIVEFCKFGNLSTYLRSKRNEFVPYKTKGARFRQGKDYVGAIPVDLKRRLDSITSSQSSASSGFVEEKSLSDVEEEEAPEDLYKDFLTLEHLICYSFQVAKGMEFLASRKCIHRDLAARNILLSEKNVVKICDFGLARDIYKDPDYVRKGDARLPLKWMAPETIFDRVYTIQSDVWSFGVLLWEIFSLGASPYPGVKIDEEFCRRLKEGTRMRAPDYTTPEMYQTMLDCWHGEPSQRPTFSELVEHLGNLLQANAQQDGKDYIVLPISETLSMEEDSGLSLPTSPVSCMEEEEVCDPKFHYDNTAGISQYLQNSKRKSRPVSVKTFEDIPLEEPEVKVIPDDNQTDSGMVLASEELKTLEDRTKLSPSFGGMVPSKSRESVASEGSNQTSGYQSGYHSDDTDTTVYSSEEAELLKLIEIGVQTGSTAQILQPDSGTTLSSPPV

[1] = test system: HUVEC umbilical vein endothelial cells; assay: In vitro HUVEC anti-proliferative assay (alamarBlue); assay type: cell-based; conditions: Homo sapiens, HUVEC proliferation at 10 μM, 72 hours; for activity at 10 µM: read-out: % Cell growth; for inhibition at 10 µM: read-out: % Cell inhibition
c-Src = c-Src (Homo sapiens, UniProt P12931); assay: In vitro multiple-kinase inhibition assay, c-Src; assay type: biochemical
Chain of c-Src (P12931 whole entry, species assumed): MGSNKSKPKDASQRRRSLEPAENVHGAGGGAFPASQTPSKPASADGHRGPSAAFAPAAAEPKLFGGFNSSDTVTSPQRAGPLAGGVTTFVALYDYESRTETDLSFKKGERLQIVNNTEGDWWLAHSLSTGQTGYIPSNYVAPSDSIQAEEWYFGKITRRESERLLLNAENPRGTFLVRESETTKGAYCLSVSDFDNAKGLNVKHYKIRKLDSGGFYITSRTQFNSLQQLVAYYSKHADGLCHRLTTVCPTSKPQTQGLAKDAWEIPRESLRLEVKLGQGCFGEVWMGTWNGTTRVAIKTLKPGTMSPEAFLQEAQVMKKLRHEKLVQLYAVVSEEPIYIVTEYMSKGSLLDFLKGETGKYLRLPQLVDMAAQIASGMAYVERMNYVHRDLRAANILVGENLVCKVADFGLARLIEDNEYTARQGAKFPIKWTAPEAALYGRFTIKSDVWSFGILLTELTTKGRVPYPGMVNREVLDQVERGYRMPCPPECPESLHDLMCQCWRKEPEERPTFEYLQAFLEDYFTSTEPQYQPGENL
Protocol: (§1) In vitro multiple-kinase inhibition assay. […] Kinase enzymatic activity of the tested compounds was evaluated against a reference kinase inhibitor at 10 μM (Table 2).
(§2) The multiple kinases activity at single dose concentration of 10 μM was performed, c-Kit, c-Raf, c-Src, RET served as the enzyme source. […] Kinase-Glo Plus Luminescence kinase assay kit (Promega#V3772), ADP-Glo Luminescence assay kit was used for c-kit assay (Supplementary). […]
(§3) mM MgCl2, 0.1 mg/ml BSA, 1 mM DTT, 10 µM ATP, Kinase substrate and VEGFR. After the enzymatic reaction, 50 µl of Kinase-Glo Plus Luminescence kinase assay solution (Promega) was added to each reaction and incubate the plate for 5 minutes at room temperature.
(§4) Luminescence signal was measured using a BioTek Synergy 2 microplate reader. VEGFR activity assays were performed in duplicate at each concentration.
(§5) The luminescence data were analyzed using the computer software, Graphpad Prism. The difference between luminescence intensities in the absence of VEGFR (Lut) and in the presence of VEGFR (Luc) was defined as 100 % activity (Lut – Luc). Using luminescence signal (Lu) in the presence of the compound, % activity was calculated as:
(§6) % activity = {(Lut - Lu)/(Lut - Luc)}×100%, where Lu= the luminescence intensity in the […]
(§7) IC50 determination for inhibitor against VEGFR was calculated. The values of % activity versus a series of compound concentrations (1 nM - 10 nM - 100 nM - 1 µM - 10 µM) were then […]
(§8) or Hill coefficient. The IC50 value was determined by the concentration causing a half-maximal […]
(§9) In vitro multiple-kinase inhibition assay
(§10) Luminescence signal was measured using a BioTek Synergy 2 microplate reader […]
(§11) The luminescence data were analyzed using the same computer software and the same protocol

c-Kit = c-Kit (Homo sapiens, UniProt P10721); assay: In vitro multiple-kinase inhibition assay, c-Kit (ADP-Glo); assay type: biochemical
Chain of c-Kit (P10721 26-976): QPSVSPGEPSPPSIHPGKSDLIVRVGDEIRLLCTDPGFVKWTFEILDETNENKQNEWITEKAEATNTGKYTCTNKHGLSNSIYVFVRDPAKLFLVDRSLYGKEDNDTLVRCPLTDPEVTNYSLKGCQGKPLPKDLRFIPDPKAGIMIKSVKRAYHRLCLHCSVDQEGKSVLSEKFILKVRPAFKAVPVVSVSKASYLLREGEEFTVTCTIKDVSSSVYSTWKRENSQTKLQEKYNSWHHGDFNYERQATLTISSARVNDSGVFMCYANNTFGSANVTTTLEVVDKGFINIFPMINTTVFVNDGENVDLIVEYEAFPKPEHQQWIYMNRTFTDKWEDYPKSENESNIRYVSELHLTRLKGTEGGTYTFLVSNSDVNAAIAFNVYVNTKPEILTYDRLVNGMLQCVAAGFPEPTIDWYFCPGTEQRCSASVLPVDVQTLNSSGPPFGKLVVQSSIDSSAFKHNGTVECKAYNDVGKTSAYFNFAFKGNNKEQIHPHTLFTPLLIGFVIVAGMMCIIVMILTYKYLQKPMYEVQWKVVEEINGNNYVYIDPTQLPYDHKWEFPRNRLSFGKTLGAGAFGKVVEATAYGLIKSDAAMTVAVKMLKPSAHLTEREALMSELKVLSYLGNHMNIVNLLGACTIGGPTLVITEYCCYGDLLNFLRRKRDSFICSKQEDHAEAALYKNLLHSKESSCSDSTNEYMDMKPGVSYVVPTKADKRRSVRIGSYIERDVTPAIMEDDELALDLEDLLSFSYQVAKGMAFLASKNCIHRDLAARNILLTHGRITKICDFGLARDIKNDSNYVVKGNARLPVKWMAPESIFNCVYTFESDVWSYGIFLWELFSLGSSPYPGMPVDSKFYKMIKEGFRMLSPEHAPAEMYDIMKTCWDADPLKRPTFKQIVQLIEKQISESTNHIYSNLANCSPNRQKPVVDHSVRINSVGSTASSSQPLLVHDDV
Protocol: as §1, §2, §3, §4, §5, §6, §7, §8, §9
The assay was performed using the same conditions for VEGFR-2 activity assay (section 5.2.1.1). The assays for c-Kit was an exception, it was performed using ADP-Glo Kinase assay reagents (Promega). It measures kinase activity by quantitating the ADP amount produced from the enzymatic reaction. The luminescent signal from the assay is correlated with the amount of ADP present and is directly correlated with the amount of kinase activity. Other conditions are same to the previous section except the final reaction volume was reduced to 25 µl. After the 40 min kinase reaction at 30 °C, 25 µl of ADP-Glo reagent was added and incubated for 45 min at room temperature followed by another 50 min incubation with 50 µl of Kinase detection mixture.
as §10, §11

c-Raf = c-Raf (Homo sapiens, UniProt P04049); assay: In vitro multiple-kinase inhibition assay, c-Raf; assay type: biochemical
Chain of c-Raf (P04049 whole entry, species assumed): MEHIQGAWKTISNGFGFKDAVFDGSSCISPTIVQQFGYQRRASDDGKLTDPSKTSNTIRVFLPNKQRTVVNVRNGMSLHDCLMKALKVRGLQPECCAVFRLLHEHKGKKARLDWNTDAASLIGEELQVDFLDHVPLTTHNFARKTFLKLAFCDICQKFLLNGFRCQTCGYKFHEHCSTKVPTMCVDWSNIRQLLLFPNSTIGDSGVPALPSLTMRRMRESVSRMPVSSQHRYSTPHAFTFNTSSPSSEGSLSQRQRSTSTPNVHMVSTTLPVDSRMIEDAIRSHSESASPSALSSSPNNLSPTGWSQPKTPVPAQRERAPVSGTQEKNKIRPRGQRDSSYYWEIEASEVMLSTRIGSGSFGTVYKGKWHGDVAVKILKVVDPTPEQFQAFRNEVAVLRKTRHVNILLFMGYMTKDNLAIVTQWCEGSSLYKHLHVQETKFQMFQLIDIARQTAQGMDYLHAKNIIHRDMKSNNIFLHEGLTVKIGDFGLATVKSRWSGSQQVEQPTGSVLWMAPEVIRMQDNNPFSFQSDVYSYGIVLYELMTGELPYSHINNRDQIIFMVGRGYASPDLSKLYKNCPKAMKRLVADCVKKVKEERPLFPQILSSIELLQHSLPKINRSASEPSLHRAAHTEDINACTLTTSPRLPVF
Protocol: as §1, §2, §3, §4, §5, §6, §7, §8, §9, §10, §11

RET = RET (Homo sapiens, UniProt P07949); assay: In vitro multiple-kinase inhibition assay, RET; assay type: biochemical
Chain of RET (P07949 29-1114, species assumed): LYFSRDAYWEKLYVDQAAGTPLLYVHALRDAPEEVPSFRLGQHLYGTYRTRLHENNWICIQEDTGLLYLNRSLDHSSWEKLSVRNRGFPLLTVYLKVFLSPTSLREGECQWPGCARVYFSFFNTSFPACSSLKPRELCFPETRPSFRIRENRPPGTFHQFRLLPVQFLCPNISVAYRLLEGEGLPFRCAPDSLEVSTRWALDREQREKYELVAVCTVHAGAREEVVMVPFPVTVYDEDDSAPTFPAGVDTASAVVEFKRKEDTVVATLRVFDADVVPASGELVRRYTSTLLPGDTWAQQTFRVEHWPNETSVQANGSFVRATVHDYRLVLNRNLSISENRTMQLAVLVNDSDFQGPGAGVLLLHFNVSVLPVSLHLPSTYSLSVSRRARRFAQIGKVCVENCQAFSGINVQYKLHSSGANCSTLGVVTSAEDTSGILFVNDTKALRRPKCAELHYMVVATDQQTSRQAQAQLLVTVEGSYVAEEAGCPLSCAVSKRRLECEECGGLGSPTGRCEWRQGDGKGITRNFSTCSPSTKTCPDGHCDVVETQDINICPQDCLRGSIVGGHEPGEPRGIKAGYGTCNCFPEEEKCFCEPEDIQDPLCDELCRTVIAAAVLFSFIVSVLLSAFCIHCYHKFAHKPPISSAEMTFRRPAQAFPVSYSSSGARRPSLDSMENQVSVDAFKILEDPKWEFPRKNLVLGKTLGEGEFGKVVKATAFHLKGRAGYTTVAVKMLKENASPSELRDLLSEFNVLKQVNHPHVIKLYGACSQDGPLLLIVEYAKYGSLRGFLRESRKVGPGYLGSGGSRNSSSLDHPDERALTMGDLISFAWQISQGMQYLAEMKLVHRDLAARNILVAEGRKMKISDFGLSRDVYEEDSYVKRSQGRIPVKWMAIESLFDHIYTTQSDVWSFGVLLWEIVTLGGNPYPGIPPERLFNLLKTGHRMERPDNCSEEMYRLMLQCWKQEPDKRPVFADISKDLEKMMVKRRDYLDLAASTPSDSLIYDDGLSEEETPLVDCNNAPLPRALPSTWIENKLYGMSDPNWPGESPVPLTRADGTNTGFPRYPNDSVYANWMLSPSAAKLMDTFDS
Protocol: as §1, §2, §3, §4, §5, §6, §7, §8, §9, §10, §11

[2] = test system: Ehrlich ascites carcinoma (EAC) solid tumor; assay: In vivo anticancer activity, EAC solid tumor murine model; design: species or system Swiss albino mice; conditions: 10 mg/kg/day po, once daily for 8 consecutive days
Protocol: Animals. Female Swiss albino mice weighing 15–20 g were used in the present study. They were obtained from the animal breeding laboratory, National Cancer Institute (NCI), Cairo University, Egypt. Animals were kept in our animal facility, faculty of pharmacy, Ain Shams university at 25 ± 2 °C and a relative humidity of 40–45% with alternative day and night cycles of 12 h each. Animals had free access to pellet food and water ad libitum. Standard diet pellets (El-Nasr, Abu Zaabal, Egypt) contained not less than 20% protein, 5% fiber, 3.5% fat, 6.5% ash and a vitamin mixture. Animal care and experiments were conducted in accordance with the protocols approved by the Ethics Research Committee, Faculty of Pharmacy, Ain Shams University, following the Institutional Animal Care and Use Committee guidelines.
Tumor cells preparation and transplantation. Ehrlich ascites carcinoma (EAC) cells were obtained from NCI, Cairo University, Egypt. EAC cells were maintained in the ascitic form in Swiss albino mice by intraperitoneal transplantation of each mouse every 10 days. Ascitic fluid was drawn from tumor-bearing mice at the log phase (7–8th day of tumor bearing) of the tumor cells. The freshly drawn fluid was diluted with ice-cold sterile isotonic saline. 200 μl tumor cell suspension containing 2 × 10^6 tumor cells were then subcutaneously injected in each mouse.
Experimental design. Swiss albino mice were divided into six groups (n = 6 per group).
Evaluation of effectiveness. Tumor growth curve was drawn according to the change in tumor volume from first day of treatment (day 0) till day 7. Longest and shortest diameters of the solid tumor were monitored using a digital vernier caliper. Tumor volume (TV) of each animal was calculated using the following formula: […]
Tumor growth inhibition (TGI) was calculated as follows.
RTV = (Tumor volume at the day of measurement)/Tumor volume at the initial day.
Histopathological Examination
thickness by slidge microtome.
graded ethanol solutions.

| Structure (SMILES) | inhibition at 10 µM (VEGFR-2 (KDR)) | melting point | further results |
| --- | --- | --- | --- |
| CCOC(=O)c1c(C)oc2ncnc(Nc3ccc(NC(=O)Nc4ccc(Cl)cc4)cc3)c12 [Compound 15e] | 14% | 262 to 265 °C | – |
| CCOC(=O)c1c(C)oc2ncnc(Nc3ccc(NC(=O)Nc4cccc(OC)c4)cc3)c12 [Compound 15c] | 62% | 220 to 222 °C | – |
| CCOC(=O)c1c(C)oc2ncnc(Nc3ccc(NC(=O)Nc4cccc(C)c4)cc3)c12 [Compound 15b] | – | > 250 °C | pIC50 (VEGFR-2 (KDR)): 6.02; activity at 10 µM [1]: 0.5%; inhibition at 10 µM [1]: 99.5% |
| CN[C@@H]1C[C@H]2O[C@@](C)([C@@H]1OC)n1c3ccccc3c3c4c(c5c6ccccc6n2c5c31)C(=O)NC4 [Staurosporine, reference compound] | – | – | inhibition at 1 µM (c-Src; read-out: Inhibition %, c-Src, reference inhibitor): 98% |
| CCOC(=O)c1c(C)oc2ncnc(Nc3ccc(NC(=O)Nc4ccc(C)c(Cl)c4)cc3)c12 [Compound 15f] | – | 254 to 256 °C | pIC50 (VEGFR-2 (KDR)): 5.68; activity at 10 µM [1]: 97.7%; inhibition at 10 µM [1]: 2.32% |
| CCOC(=O)c1c(C)oc2ncnc(Nc3ccc(C(=O)Nc4ccc(C)cc4)cc3)c12 [Compound 14c] | 14% | 235 to 238 °C | – |
| CCOC(=O)c1c(C)oc2ncnc(Nc3ccc(NC(=O)Nc4ccccc4)cc3)c12 [Compound 15a] | 19% | – | – |
| CCOC(=O)c1c(C)oc2ncnc(Nc3ccc(NC(=O)Nc4cccc(C(C)=O)c4)cc3)c12 [Compound 15g] | > 70% | 240 to 244 °C | – |
| CCOC(=O)c1c(C)oc2ncnc(Oc3ccc(NC(=O)Nc4cccc(C)c4)cc3)c12 [Compound 16b] | > 70% | 116 to 119 °C | pIC50 (VEGFR-2 (KDR)): 6.00; activity at 10 µM [1]: 73.3%; inhibition at 10 µM [1]: 26.6% |
| CCOC(=O)c1c(C)oc2ncnc(Oc3ccc(NC(=O)Nc4cccc(OC)c4)cc3)c12 [Compound 16c] | – | – | pIC50 (VEGFR-2 (KDR)): 6.26; activity at 10 µM [1]: 32.1%; inhibition at 10 µM [1]: 67.9% |
| CC(=O)c1cccc(NC(=O)Nc2ccc(Nc3ncnc4sc5c(c34)CCCC5)cc2)c1 [Compound 20g] | > 70% | 265 to 269 °C | pIC50 (VEGFR-2 (KDR)): 5.82; activity at 10 µM [1]: 29.2%; inhibition at 10 µM [1]: 70.8% |
| CCOC(=O)c1c(C)oc2ncnc(Nc3ccc(NC(=O)c4cccc(Cl)c4)cc3)c12 [Compound 13a] | 8% | 232 to 236 °C | – |
| CCOC(=O)c1c(C)oc2ncnc(Nc3ccc(NC(=O)Nc4cccc(Br)c4)cc3)c12 [Compound 15h] | 45% | 224 to 228 °C | – |
| CCOC(=O)c1c(C)oc2ncnc(Nc3ccc(NC(=O)c4ccc(Cl)cc4)cc3)c12 [Compound 13b] | 15% | > 250 °C | – |
| CCOC(=O)c1c(C)oc2ncnc(Oc3ccc(NC(=O)Nc4ccccc4)cc3)c12 [Compound 16a] | 27% | 183 to 185 °C | – |
| CCOC(=O)c1c(C)oc2ncnc(Oc3ccc(NC(=O)Nc4ccc(C)c(Cl)c4)cc3)c12 [Compound 16e] | > 70% | – | pIC50 (VEGFR-2 (KDR)): 6.91; inhibition at 10 µM (c-Kit): 72%; inhibition at 10 µM (c-Raf): 53%; inhibition at 10 µM (c-Src): 1%; inhibition at 10 µM (RET): 84%; activity at 10 µM [1]: 88.9%; inhibition at 10 µM [1]: 11.1% |
| Cc1ccc(NC(=O)Nc2ccc(Nc3ncnc4sc5c(c34)CCCC5)cc2)cc1Cl [Compound 20f] | > 70% | > 300 °C | – |
| O=C(Nc1ccc(Cl)cc1)Nc1ccc(Nc2ncnc3sc4c(c23)CCCC4)cc1 [Compound 20e] | 32% | > 300 °C | – |
| CNC(=O)c1cc(Oc2ccc(NC(=O)Nc3ccc(Cl)c(C(F)(F)F)c3)cc2)ccn1.Cc1ccc(S(=O)(=O)O)cc1 [Sorafenib p-toluenesulfonate, sorafenib p-toluenesulfonate, reference compound] | – | – | TGI (%) [2]: 80.8% |
| CCOC(=O)c1c(C)oc2ncnc(Nc3ccc(C(=O)Nc4ccc(Cl)c(C(F)(F)F)c4)cc3)c12 [Compound 14d] | 14% | 238 to 240 °C | – |
| CCOC(=O)c1c(C)oc2ncnc(Oc3ccc(NC(=O)Nc4ccc(Cl)cc4)cc3)c12 [Compound 16d] | 40% | 215 to 219 °C | – |
| Cc1cccc(NC(=O)Nc2ccc(Nc3ncnc4sc5c(c34)CCCC5)cc2)c1 [Compound 20b] | 47% | > 250 °C | – |
